Assay results: PubChem BioAssay (NCI)
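A five-concentration, 48-hour dose response in 96-well plates underlies each endpoint, interpolated linearly between surrounding concentrations. TGI denotes the concentration required for complete inhibition of growth.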

What was measured:
Assay in all cases: inhibition of tumour cell growth, NCI panel, 48 h
[1] = test system: U251 CNS
[2] = test system: MDA-MB-231 breast
[3] = test system: SK-MEL-28 melanoma
[4] = test system: HOP-92 NSCLC
[5] = test system: DU-145 prostate
[6] = test system: MDA-MB-435
[7] = test system: 786-0 renal
[8] = test system: HL-60(TB) leukemia
[9] = test system: SF-268 CNS
[10] = test system: HS 578T breast
[11] = test system: SR leukemia
[12] = test system: A498 renal
[13] = test system: M14 melanoma
[14] = test system: NCI-H23 lung
[15] = test system: LOX IMVI melanoma
[16] = test system: UACC-257 melanoma
[17] = test system: PC-3 prostate
[18] = test system: NCI-H226 lung
[19] = test system: OVCAR-8 ovarian
[20] = test system: MOLT-4 leukemia
[21] = test system: CAKI-1 renal
[22] = test system: SK-MEL-2 melanoma
[23] = test system: K-562 leukemia
[24] = test system: CCRF-CEM leukemia
[25] = test system: UACC-62 melanoma
[26] = test system: TK-10 renal
[27] = test system: HT29 colon
[28] = test system: MDA-N
[29] = test system: ACHN renal
[30] = test system: MCF7 breast
[31] = test system: SW-620 colon
[32] = test system: SN12C renal
[33] = test system: SK-MEL-5 melanoma
[34] = test system: OVCAR-3 ovarian
[35] = test system: NCI-H460 lung
[36] = test system: OVCAR-4 ovarian
[37] = test system: NCI-H522 lung
[38] = test system: HCC-2998 colon
[39] = test system: HCT-116 colon
[40] = test system: EKVX NSCLC
[41] = test system: RPMI-8226 leukemia
[42] = test system: A549 NSCLC
[43] = test system: HCT-15 colon
[44] = test system: T-47D breast
[45] = test system: SNB-19 CNS
[46] = test system: NCI/ADR-RES ovarian
[47] = test system: KM12 colon
[48] = test system: SF-539 CNS
[49] = test system: COLO 205 colon
[50] = test system: IGROV1 ovarian
[51] = test system: HOP-62 NSCLC
[52] = test system: SF-295 CNS
[53] = test system: MALME-3M melanoma
[54] = test system: SK-OV-3 ovarian
[55] = test system: OVCAR-5 ovarian
[56] = test system: RXF 393 renal
[57] = test system: SNB-75 CNS

CCOC(=O)/C(C)=C\[C@@]1(C)O[C@@H](C)[C@@](C)(OC(C)=O)[C@@H]1OC(C)=O
TGI [1]: > 100 µM | TGI [2]: > 100 µM | TGI [3]: > 100 µM | TGI [4]: > 100 µM | TGI [5]: > 100 µM | TGI [6]: > 100 µM | TGI [7]: > 100 µM | TGI [8]: > 100 µM | TGI [9]: > 100 µM | TGI [10]: > 100 µM | TGI [11]: > 100 µM | TGI [12]: > 100 µM | TGI [13]: > 100 µM | TGI [14]: 77.1 µM | TGI [15]: > 100 µM | TGI [16]: > 100 µM | TGI [17]: > 100 µM | TGI [18]: > 100 µM | TGI [19]: > 100 µM | TGI [20]: > 100 µM | TGI [21]: > 100 µM | TGI [22]: > 100 µM | TGI [23]: > 100 µM | TGI [24]: > 100 µM | TGI [25]: > 100 µM | TGI [26]: > 100 µM | TGI [27]: > 100 µM | TGI [28]: > 100 µM | TGI [29]: > 100 µM | TGI [30]: > 100 µM | TGI [31]: > 100 µM | TGI [32]: > 100 µM | TGI [33]: > 100 µM | TGI [34]: > 100 µM | TGI [35]: > 100 µM | TGI [36]: > 100 µM | TGI [37]: 62.7 µM | TGI [38]: > 100 µM | TGI [39]: > 100 µM | TGI [40]: > 100 µM | TGI [41]: > 100 µM | TGI [42]: > 100 µM | TGI [43]: 60.2 µM | TGI [44]: 59.8 µM | TGI [45]: > 100 µM | TGI [46]: > 100 µM | TGI [47]: > 100 µM | TGI [48]: > 100 µM | TGI [49]: > 100 µM | TGI [50]: > 100 µM | TGI [51]: > 100 µM | TGI [52]: > 100 µM | TGI [53]: > 100 µM | TGI [54]: > 100 µM | TGI [55]: > 100 µM

O=C(NC(C(F)(F)F)(C(F)(F)F)P(=O)(c1ccccc1)c1ccccc1)C(C(F)(F)F)C(F)(F)F
TGI [1]: > 100 µM | TGI [2]: 59.2 µM | TGI [3]: > 100 µM | TGI [56]: 68.2 µM | TGI [5]: > 100 µM | TGI [6]: 37.7 µM | TGI [7]: 47.8 µM | TGI [8]: 63.2 µM | TGI [9]: > 100 µM | TGI [10]: > 100 µM | TGI [12]: > 100 µM | TGI [13]: 36.3 µM | TGI [14]: 64.2 µM | TGI [15]: 58.9 µM | TGI [16]: 82.2 µM | TGI [17]: 80.8 µM | TGI [18]: > 100 µM | TGI [19]: 72.8 µM | TGI [20]: > 100 µM | TGI [21]: 0.0564 µM | TGI [22]: > 100 µM | TGI [23]: > 100 µM | TGI [24]: > 100 µM | TGI [25]: > 100 µM | TGI [26]: 72.7 µM | TGI [27]: 56 µM | TGI [28]: 44.2 µM | TGI [29]: 30.9 µM | TGI [30]: 62.1 µM | TGI [31]: 62.3 µM | TGI [32]: 77 µM | TGI [33]: 37 µM | TGI [34]: 69.7 µM | TGI [35]: > 100 µM | TGI [36]: > 100 µM | TGI [37]: 71.6 µM | TGI [57]: 91.3 µM | TGI [38]: > 100 µM | TGI [39]: 39.1 µM | TGI [40]: > 100 µM | TGI [41]: 91.8 µM | TGI [42]: > 100 µM | TGI [43]: 83.3 µM | TGI [44]: > 100 µM | TGI [45]: > 100 µM | TGI [46]: 47.9 µM | TGI [47]: 56.8 µM | TGI [48]: 52.1 µM | TGI [49]: 37.4 µM | TGI [50]: 57.7 µM | TGI [51]: > 100 µM | TGI [52]: > 100 µM | TGI [53]: 33.6 µM | TGI [54]: > 100 µM | TGI [55]: > 100 µM
